How the values were obtained:
[1] = system: rat embryonic (E18) hippocampal neurons; test: Neurite outgrowth screening assay with hippocampal neurons; assay type: cell-based; settings: neurite total length as percentage of control; for NTL_32 (neurite outgrowth, % NTL): concentration 32 (unit not given); for NTL_160 (neurite outgrowth, % NTL): concentration 160 (unit not given); for NTL_800 (neurite outgrowth, % NTL): concentration 800 (unit not given); for NTL_4000 (neurite outgrowth, % NTL): concentration 4000 (unit not given); for NTL_20000 (neurite outgrowth, % NTL): concentration 20000 (unit not given)
Text: Neurite Outgrowth Screening Assay with Hippocampal Neurons. Kinase inhibitor libraries were screened in a neurite outgrowth assay. Compounds were screened on rat embryonic (E18) hippocampal neurons cultured for 2 DIV on poly-D-lysine. Plates were fixed, immunostained, and imaged. Screened compounds were classified based on their effects on neurite total length, expressed as percentage of control (% NTL), which served as the biological activity referenced in FIG. 1, for this example. Hits were defined as compounds whose biologic activity (% NTL) reached at least 130% in two independent experiments (hits: % NTL 130; non-hits: % NTL<130). That is, in this example an NTL of 130 was used as the threshold measure (see, e.g., FIGS. 8 and 9). […] A stratification (assurance) step was performed by eliminating from subsequent analysis compounds that had biologic activity within 1 standard deviation of the hit threshold (130±15) (see, e.g., FIG. 6A). Compounds that reduced viable cell count (biologic activity) by more than 40% at concentrations below 800 nM were considered to be toxic and also excluded from subsequent analysis.

[2] = system: representative anti-target kinases; test: Target/anti-target activity matrix from kinase profiling; assay type: biochemical; settings: FIG. 3B matrix
Protocol: (§1) Activity Profiling of Screened Kinase Inhibitors. In vitro profiling of kinase inhibitors against a panel of 190 kinases was performed. Out of bound values were cropped, whereby values below 0% were adjusted to 0%, and values above 100% were adjusted to 100%.
(§2) FIG. 3B illustrates a resultant target-anti-target activity matrix developed by the identification system (e.g., at process 114). The target/anti-target matrix identifies protein target groups separately from protein anti-target groups, where each group type may be ranked according to various factors, such as biologic activity and inhibition bias. Engagement of the protein targets in the matrix promotes a biological activity; and engagement of the protein anti-targets in the matrix impedes the biological activity. In the particular example of FIG. 3B, representative protein kinases for each kinase group and the compounds that inhibit at least one member in the group by ≧10% are shown. […] Compounds are arranged top to bottom in order of decreasing maximum % NTL (right-hand color scale). […] RO0480500-002 accordingly produced % NTL up to 400%, well above the % NTL of any of the other compound. […]

[3] = system: representative target kinases; test: as above; assay type: biochemical; settings: FIG. 3B matrix; seven targets
Protocol: as §1, §2

Structure (SMILES)	NTL_32 (neurite outgrowth, % NTL) [1]	NTL_160 (neurite outgrowth, % NTL) [1]	NTL_800 (neurite outgrowth, % NTL) [1]	NTL_4000 (neurite outgrowth, % NTL) [1]	NTL_20000 (neurite outgrowth, % NTL) [1]	inhibition of representative anti-target kinases [2]	inhibition of representative target kinases [3]
NC[C@H](CC1CCCCC1)NC(=O)c1ccc(-c2ccnc3[nH]ccc23)s1 [GSK1581428A]	229.399%	335.5001%	262.488%	92.84%	36.79%		
c1ccc(-c2cnc(Nc3ccc(OCCN4CCCC4)cc3)s2)cc1 [Flt-3 Inhibitor III]	227.0293%	250.8023%	291.5283%	105.129%	48.44%		
NS(=O)(=O)c1cccc(N/C=C2\C(=O)Nc3ccc(S(=O)(=O)Cc4c(Cl)cccc4Cl)cc32)c1 [GSK398099A]	100.7527%	86.99%	91.2121%	234.4329%	357.738%		
N#CC(=C(N)Sc1ccc(N)cc1)c1ccccc1C(F)(F)F [MEK1/2 Inhibitor]	109.3381%	101.2957%	104.668%	120.1756%	286.068%		
Cl.O=S(=O)(c1cccc2c(I)cccc12)N1CCCNCC1 [ML-7, Hydrochloride]	193.8632%	288.4679%	285.3279%	269.3169%	70.23%		
N#Cc1ccc(-c2cc(-c3c[nH]nc3-c3ccccn3)ccn2)cc1 [GW693028X]	114.3254%	101.7908%	99.07%	110.3241%	296.1224%		
COc1cc(N2CCC(N3CCN(C)CC3)CC2)ccc1Nc1ncnc(Nc2ccccc2S(=O)(=O)C(C)C)n1 [ASP3026]						does not inhibit any	inhibits the two target kinases

From patent US20170147743A1, “RAPID IDENTIFICATION OF PHARMACOLOGICAL TARGETS AND ANTI-TARGETS FOR DRUG DISCOVERY AND REPURPOSING” (UNIVERSITY OF MIAMI, priority 2015, published 2017)
